Read-outs that look alike come from different tables or passages of the source.
Assays:
[1] = system: PSAPP mice; assay: Plaque load in cortex and hippocampus by amyloid beta immunostaining; assay type: in vivo, mouse; settings: for immunoreactivity of β1-40 in cortex: FIG. 2A; for immunoreactivity of β1-40 in hippocampus: FIG. 2B
Protocol: PSB0474 was systemically administered to PSAPP mice via intraperitoneal injection for 2, 4 and 6 consecutive days. In one group, prior to evaluation and following to administration for 6 consecutive days, treatment was suspended for two weeks (6+2 weeks group). Brains were then fixed and plaque load was evaluated by immunostaining with the amyloid beta specific antibodies: β1-40 and β1-42. Representative images of plaque load in cortex and hippocampus from animals that received injections of PSB0474 according to the foregoing injection schedules are shown in FIGS. 1(A)-(D). […] Whereas, when administration of PSB0474 was stopped for 2 weeks following six consecutive days of treatment (denoted as the 6+2 weeks group), β1-40 staining rebounded; although to a level lower than observed in mice treated with saline as a vehicle control. […] FIGS. 2C-2F depict data obtained following administration of different dosages of PSB0474.
To generate these graphs showing plaque load, mice were euthanized, brain sections cut and antibodies directed against Aβ42 were used to disclose Aβ plaques. Images were acquired digitally and an algorithm was applied to threshold the image so that plaques were isolated from the background. The algorithm then calculated the percent area of the field of view occupied by the plaques.
Brain samples were collected for Abeta analysis with immunostaining. Brains samples were collected after transcardial perfusion with phosphate buffer and 4% paraformaldehyde. Floating brain sections (40 micron) were collected using a microtome. Immunostaining for […] and Aβ42 were performed according to previously established protocol. Images with DAB staining were collected with brightfield microscopy and analyzed with ImageJ Macro. All data analysis and statistics were performed in GraphPad Prism 6.0.
(§1) In this study, treatment of PSAPP mice commenced when the mice were pre-symptomatic. Specifically, treatment was initiated when the mice were approximately 3 months old. PSAPP mice were treated for 100 days with daily, intraperitoneal injections of 10 μg/kg of compound 5 or vehicle. Following treatment, mice were assessed in a fear conditioning task for memory formation. Subsequently, plaque burden in the mice was also evaluated. The data provided in Examples 16 and 17 is for 19 vehicle treated mice and 22 compound treated mice. The data provided for the vehicle-treated group is the average across those mice, and error bars depict the standard error (SEM). Similarly, the data provided for the compound-treated group is the average across those mice, and the error bars depict the SEM.
as §1, with “assessed for the following: concentration of circulating pro-inflammatory cytokines; amyloid beta load (e.g., plaque burden); and memory” for “assessed”, “formation.” for “formation. Subsequently, plaque burden in the mice was also evaluated.”, “Example 18” for “Examples 16 and 17”, “18” for “19”, “20” for “22”, “SEM. Mice were first evaluated in the fear conditioning task experiment. Subsequently, plasma was taken for multiplex cytokine analysis of circulating levels of cytokine in the plasma. Finally, plaque burden was assessed in the cortex and hippocampus of the mice.” for “SEM.”
In this study, treatment of PSAPP mice commenced after the mice were already symptomatic. Specifically, treatment was initiated when the mice were approximately 6 months old. […]

[2] = target: T1, P2Y6 receptor (Homo sapiens, UniProt Q15077); settings: cited from earlier work
T1 sequence (Q15077 whole entry): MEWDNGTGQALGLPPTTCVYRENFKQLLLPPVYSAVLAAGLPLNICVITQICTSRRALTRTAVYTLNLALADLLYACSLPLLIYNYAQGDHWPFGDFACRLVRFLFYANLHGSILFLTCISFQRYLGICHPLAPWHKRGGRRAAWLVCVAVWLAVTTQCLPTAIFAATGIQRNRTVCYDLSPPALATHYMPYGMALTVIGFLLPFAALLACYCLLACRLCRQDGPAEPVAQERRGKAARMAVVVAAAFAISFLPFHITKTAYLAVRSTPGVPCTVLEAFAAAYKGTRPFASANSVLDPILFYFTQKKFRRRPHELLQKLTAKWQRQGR

[3] = system: PSAPP mice; assay: Tolerability of increased dose of PSB0474 in PSAPP mice; assay type: in vivo, mouse; settings: 1000× increase in dose
[4] = system: THP-1 cells; assay: Cytokine release from human THP-1 cells (multiplex analysis of culture medium); assay type: cell-based; settings: 24 hours, vs vehicle
Protocol: THP-1 cells, a human cell line derived from monocytes, were treated in vitro with vehicle, the P2Y6 receptor antagonist MRS 2578, or compound 5, singly or in combination. THP-1 cells were seeded in 24 well plates at a density of 4×10^5 cells/well in culture medium for 24 hours. Thereafter, vehicle, compound 5, or MRS 2578 (singly or in combination) were added to the cultures for 24 hours. Subsequently the culture medium was aspirated and subjected to multiplex cytokine analysis. Data are presented as means+/−sem. MRS 2578 has a molecular weight of about 472 and is also described using CAS number 711019-86-2.

[5] = target: T2, P2Y2 receptor (Homo sapiens, UniProt P41231); assay: Ca2+ mobilizing effect (fluo-4) in 1321N1 cells expressing P2Y2 receptor; assay type: cell-based
T2 construct: expressed in transfected cells; host or cells: 1321N1 human astrocytoma cells
T2 sequence (P41231 whole entry): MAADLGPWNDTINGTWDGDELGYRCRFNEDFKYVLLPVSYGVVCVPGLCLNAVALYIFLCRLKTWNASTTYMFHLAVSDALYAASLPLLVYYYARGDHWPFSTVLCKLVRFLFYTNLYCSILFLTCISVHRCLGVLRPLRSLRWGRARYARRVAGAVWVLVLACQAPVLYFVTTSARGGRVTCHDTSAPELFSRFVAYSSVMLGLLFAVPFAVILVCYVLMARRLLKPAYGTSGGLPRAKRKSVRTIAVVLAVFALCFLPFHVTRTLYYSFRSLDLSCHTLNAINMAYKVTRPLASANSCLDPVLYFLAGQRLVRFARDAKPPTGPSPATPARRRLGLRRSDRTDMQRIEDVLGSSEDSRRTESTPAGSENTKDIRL
Protocol: (§2) Nucleoside disphosphate analogs of the foregoing compounds were tested for activation of P2Y6 receptor by measuring receptor induced Ca^2+ changes with the fluorescent Ca^2+ indicator fluo-4. 1321N1 human astrocytoma cell lines either expressing P2Y2, P2Y4 or P2Y6 receptors were plated into 24-well plates. Two days after plating, fluorometric measurements were made and responses of cells to a serial dilution of compound were determined. P2Y6 receptor mediated Ca^2+ fluorescent change was determined by normalized accumulation of fluorescent change of 3 timepoints after compound administration subtracted by value from ACSF control. Changes in fluorescent intensity were plotted corresponding to compound concentration in GraphPad. Dose-response curve and EC50 for each compound was estimated using nonlinear curve fit and Sigmoidal dose-response analysis. […]
(§3) Synthetic compounds were tested for activation of P2Y6 receptor by measuring receptor induced Ca^2+ changes with the fluorescent Ca^2+ indicator fluo-4, and results are shown in FIGS. 3(A)-(K). […] Two days after plating, fluorometric measurements were made and responses of cells to a serial dilution of compound were determined. P2Y6 receptor mediated Ca^2+ fluorescent change was determined by normalized accumulation of fluorescent change of 3 timepoints after compound administration subtracted by value from ACSF control. […]

[6] = target: T1, P2Y6 receptor; assay: Activation of P2Y6 receptor: receptor induced Ca2+ changes with fluo-4 in 1321N1 cells; assay type: cell-based; set-up: expressed in transfected cells; host or cells: 1321N1 human astrocytoma cells
Protocol: as §2, §3

[7] = target: T3, P2Y4 receptor (Homo sapiens, UniProt P51582); assay: Ca2+ mobilizing effect (fluo-4) in 1321N1 cells expressing P2Y4 receptor; assay type: cell-based
T3 construct: expressed in transfected cells; host or cells: 1321N1 human astrocytoma cells
T3 sequence (P51582 whole entry): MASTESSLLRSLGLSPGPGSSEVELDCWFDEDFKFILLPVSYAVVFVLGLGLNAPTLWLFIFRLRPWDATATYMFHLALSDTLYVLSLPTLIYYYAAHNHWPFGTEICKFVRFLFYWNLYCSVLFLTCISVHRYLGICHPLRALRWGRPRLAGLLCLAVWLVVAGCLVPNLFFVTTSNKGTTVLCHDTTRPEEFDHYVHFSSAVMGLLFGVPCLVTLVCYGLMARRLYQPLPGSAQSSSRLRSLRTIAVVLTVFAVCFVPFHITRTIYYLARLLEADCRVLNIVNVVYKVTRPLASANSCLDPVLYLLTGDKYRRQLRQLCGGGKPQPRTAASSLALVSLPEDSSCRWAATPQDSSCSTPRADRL
Protocol: as §2, §3

SMILES: O=C(Cn1c(=O)ccn([C@@H]2O[C@H](COP(=O)(O)OP(=O)(O)O)[C@@H](O)[C@H]2O)c1=O)c1ccccc1 [3-phenacyl-UDP, reference compound]
- β1-40 staining ([1]; 6 consecutive days, then stopped for 2 weeks (6+2 weeks group), still lower than saline control): rebounded
- effects on the efficacy endpoint (plaque load) ([1]; higher dose of 1 mg/kg, FIGS. 2C-2F): smaller effects
- immunoreactivity of β1-40 in cortex ([1]; i.p. for 4 consecutive days): significantly decreased
- immunoreactivity of β1-40 in hippocampus ([1]; i.p. for 4 consecutive days): significantly decreased
- immunoreactivity of β1-40 in cortex ([1]; i.p. for 6 consecutive days): significantly decreased
- immunoreactivity of β1-40 in hippocampus ([1]; i.p. for 6 consecutive days): significantly decreased
- EC50 ([2]; P2Y6 receptor agonist): 70 nM
- selectivity for P2Y6 receptor [2]: > 500 fold
- detrimental effects to the animal [3]: did not cause detrimental effects

SMILES: S=C=Nc1cccc(NC(=S)NCCCCNC(=S)Nc2cccc(N=C=S)c2)c1 [MRS 2578]
- release of fractalkine into culture media ([4]; FIG. 18A): increased
- release of PDGF-BB into culture media ([4]; FIG. 18B): increased
- release of IL-7 into culture media ([4]; MRS 2578 alone, FIG. 18C, FIG. 19): increased

SMILES: O=c1ccn(C2OC(COP(=O)(O)OP(=O)(O)O)C(O)[C@@H]2O)c(=O)n1Cc1noc2ccccc12 (stereo partly shown)
- elevating Ca^2+ levels in P2Y2 receptor expressing cells [5]: not effective
- EC50 ([6]; 1321N1 human astrocytoma cells expressing P2Y6, fluo-4 Ca2+ fluorescence): 12 nM
- ability to elevate Ca^2+ signals in P2Y6 receptor expressing cells ([6]; with addition of the P2Y6 antagonist MRS2578): attenuated
- elevating Ca^2+ levels in P2Y4 receptor expressing cells [7]: not effective
